These are literature values, as cited in paper PMC5587309, “Involvement of arginine 878 together with Ca^2+ in mouse aminopeptidase A substrate specificity for N-terminal acidic amino-acid residues” (PLoS ONE, 2017).

One series relates to APN. Also on record: method as in PMID 7915326. To be noted: cited from earlier work.
A further series has as its target APA. Further details: method as in PMID 7915326. The settings on record: read-out: inhibitory potency on APA; cited from earlier work.

Consider `N[C@H](CS)CCS(=O)(=O)O` [EC33, (3S)‐3‐amino‐4‐sulfanylbutane‐1‐sulfonic acid], for which, in the series on APN, the “fold less active on APN than on APA” value is reported as 100 fold. The Ki at APA is 100 nM.
